Tests used:
[1] = test system: tight junction proteins (ZO-1, Occludin, Claudin-5); assay: Western blotting, protein expression of tight junction proteins in isolated microvessels of diabetic mice; assay type: in vivo
Description: Male laca mice weighing between 28-32 g were procured from the Central Animal House, Panjab University, Chandigarh. The animals were acclimatized and were fed with standard pellet diet and water ad libitum. The experimental protocols were approved by the Institutional Ethics Committee and were conducted according to Indian National Science Academy (INSA) guidelines for the use and care of experimental animals. The animals were divided into four groups: (i) Control animals received phosphate buffered saline (PBS) throughout the study; (ii) Control+GSNO animals were administered with GSNO 100 μg/kg body weight orally, dissolved in PBS after every 24 h for 8 weeks; (iii) Diabetic animals were injected with STZ at a dose of 40 mg/kg body weight intraperitoneally for 5 days dissolved in 0.1 mol/L citrate buffer, pH 4.5 and Diabetic+GSNO mice were administered GSNO 100 μg/kg body weight orally dissolved in PBS after every 24 h for 8 weeks after the induction of diabetes. Animals were assessed weekly for development of diabetic encephalopathy in terms of memory deficits. All experimental procedures were done on mice at the end of study. The microvessels were isolated by the method described by Brooks et al., (2005). Brain tissue was homogenized in microisolation buffer (103 mM NaCl, 4.7 mM KCl, 2.5 mM CaCb, 1.2 mM KH2PO4, 1.2 mM MgSO4, 15 mM HEPES, 2.5 mM NaHCO3, 10 mM D-glucose, 1 mM sodium pyruvate and 10 g/L dextran (64,000 mol wt), pH 7.4) and equal amount of 26% (w/v) dextran was added. The sample was then centrifuged at 5600 g for 10 min and pellets obtained were resuspended in microisolation buffer. Then the suspension was filtered through 70 μm filter (BD Biosciences, Gurgaon, India). The filtered homogenates were then centrifuged at 3000 g for 10 min at 4° C. and the pellet was obtained. Protein expression of tight junction proteins and cell adhesion molecules i.e. ZO-1, occludin, Claudin-5, ICAM-1 and VCAM-1 was studied in microvessels obtained from cortex and hippocampus regions of the brain (Towbin et al., 1992). […]

[2] = test system: cell adhesion molecules (ICAM-1 and VCAM-1); assay: Western blotting, protein expression of cell adhesion molecules in isolated microvessels of diabetic mice; assay type: in vivo; details: cortex and hippocampus microvessels, GSNO vs untreated diabetic group
Description: Male laca mice weighing between 28-32 g were procured from the Central Animal House, Panjab University, Chandigarh. The animals were acclimatized and were fed with standard pellet diet and water ad libitum. The experimental protocols were approved by the Institutional Ethics Committee and were conducted according to Indian National Science Academy (INSA) guidelines for the use and care of experimental animals. The animals were divided into four groups: (i) Control animals received phosphate buffered saline (PBS) throughout the study; (ii) Control+GSNO animals were administered with GSNO 100 μg/kg body weight orally, dissolved in PBS after every 24 h for 8 weeks; (iii) Diabetic animals were injected with STZ at a dose of 40 mg/kg body weight intraperitoneally for 5 days dissolved in 0.1 mol/L citrate buffer, pH 4.5 and Diabetic+GSNO mice were administered GSNO 100 μg/kg body weight orally dissolved in PBS after every 24 h for 8 weeks after the induction of diabetes. Animals were assessed weekly for development of diabetic encephalopathy in terms of memory deficits. All experimental procedures were done on mice at the end of study. The microvessels were isolated by the method described by Brooks et al., (2005). […]

[3] = test system: IFN-γ, IL-17; assay: IFN-γ and IL-17 in spinal cords of passively immunized EAE mice, ELISA; assay type: in vivo, SJL mice; details: T cells from GSNO treated vs untreated EAE mice
Description: At the peak of EAE disease, the mice were sacrificed and CD4+ T cells were purified from draining lymph nodes (DLN) and spleens by CD4+ T cell isolation kit (Miltenyi, Auburn. Calif.). The purified T cells (2.5×10^6 cells/ml) were cultured in 96-well round-bottom microculture plates (Falcon Labware, Oxnard, Calif.) in RPMI-complete media containing RPMI 1640 (Life Technologies, Gaithersburg, Md.), 10% FBS, and 100 μg/ml streptomycin and penicillin (Atlanta Biologicals Norcross, Ga.), 1 mM glutamine, 1 mM nonessential amino acids, and 50 μM 2-mercaptoethanol (Sigma-Aldrich). For skewing of different CD4+ T cell subsets and their expansion, the isolated CD4+ T cells were stimulated with PLP139-151 (5 μg/ml) with IL-2 (10 ng/ml) for TH0, IL-2 (10 ng/ml), rhIL-12p35 (10 ng/ml), and anti-IL-4 (1 μg/ml) for TH1, or recombinant mouse IL-12/23p40 homodimer (10 ng/ml), anti-IFN-γ 1 (μg/ml), anti-IL-4 (1 μg/ml) for TO 17. All cytokines and antibodies were purchased from BD Biosciences (San Diego, Calif.). […]
(20-30×10^6 T cells in 300 μl RPMI media per mouse) were injected to naive SJL female mice (8-10 week old) via intraperitoneal route. […] Clinical EAE disease was measured as describe above.

[4] = microvessels of cortex and hippocampus, diabetic mice + GSNO 100 μg/kg oral 8 weeks

Q: Which results are given for `N[C@@H](CCC(=O)N[C@@H](CSN=O)C(=O)NCC(=O)O)C(=O)O` [GSNO, S-nitrosoglutathione]?
A: protein expression of claudin-5 ([1]; GSNO treated diabetic animals): no significant change; increase of protein expression of ZO-1 [1, 4]: ~70%; increase of protein expression of occludin [1, 4]: ~60%; protein expression of ICAM-1 [2]: significantly mitigate; protein expression of VCAM-1 [2]: significantly mitigate; IFN-γ in the spinal cords of passively immunized mice [3]: comparable levels; IL-17 in the spinal cords of passively immunized mice [3]: significantly lower levels
